System: 171881-019-R-J1-PDC complex spheroid viability
Assay: Anticancer human tumor 171881-019-R-J1-PDC patient-derived invasive breast carcinoma cell line growth inhibition
Conditions: for IC50: curve of first compound; for viability, T/C: stronger effect = lower value
In short: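 Complex spheroids of tumor cells with HUVEC and human MSCs, exposed to iadademstat combined with other agents. Each agent tested in half-log steps from near clinical Cmax (else 10 microM top), DMSO ≤0.25%.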

[1] = second compound 0.1 µM, first compound 0.000316 µM
[2] = second compound 0.1 µM, first compound 0.001 µM
[3] = second compound 0.1 µM, first compound 0.00316 µM
[4] = second compound 0.1 µM, first compound 0.01 µM
[5] = second compound 0.1 µM, first compound 0.0316 µM
[6] = second compound 0.1 µM, first compound 0.1 µM
[7] = second compound 0.316 µM, first compound 0.000316 µM
[8] = second compound 0.316 µM, first compound 0.001 µM
[9] = second compound 0.316 µM, first compound 0.00316 µM
[10] = second compound 0.316 µM, first compound 0.01 µM
[11] = second compound 0.316 µM, first compound 0.0316 µM
[12] = second compound 0.316 µM, first compound 0.1 µM
[13] = second compound 1 µM, first compound 0.000316 µM
[14] = second compound 1 µM, first compound 0.001 µM
[15] = second compound 1 µM, first compound 0.00316 µM
[16] = second compound 1 µM, first compound 0.01 µM
[17] = second compound 1 µM, first compound 0.0316 µM
[18] = second compound 1 µM, first compound 0.1 µM
[19] = second compound 3.16 µM, first compound 0.000316 µM
[20] = second compound 3.16 µM, first compound 0.001 µM
[21] = second compound 3.16 µM, first compound 0.00316 µM
[22] = second compound 3.16 µM, first compound 0.01 µM
[23] = second compound 3.16 µM, first compound 0.0316 µM
[24] = second compound 3.16 µM, first compound 0.1 µM
[25] = second compound 10 µM, first compound 0.000316 µM
[26] = second compound 10 µM, first compound 0.001 µM
[27] = second compound 10 µM, first compound 0.00316 µM
[28] = second compound 10 µM, first compound 0.01 µM
[29] = second compound 10 µM, first compound 0.0316 µM
[30] = second compound 10 µM, first compound 0.1 µM

| Structure (SMILES) | IC50 (second compound 0.1 µM) | IC50 (second compound 0.316 µM) | IC50 (second compound 1 µM) | IC50 (second compound 3.16 µM) | IC50 (second compound 10 µM) | viability, T/C [3] | viability, T/C [4] | viability, T/C [5] | viability, T/C [6] | viability, T/C [9] | viability, T/C [10] | viability, T/C [11] | viability, T/C [12] | viability, T/C [15] | viability, T/C [16] | viability, T/C [17] | viability, T/C [18] | viability, T/C [21] | viability, T/C [22] | viability, T/C [23] | also measured |
| --- | --- | --- | --- | --- | --- | --- | --- | --- | --- | --- | --- | --- | --- | --- | --- | --- | --- | --- | --- | --- | --- |
| CC(C)CC(NC(=O)C(Cc1ccccc1)NC(=O)c1cnccn1)B(O)O (stereo not given) + NC1CCC(NC2CC2c2ccccc2)CC1 | < 0.316 nM | < 0.316 nM | < 0.316 nM | < 0.316 nM | < 0.316 nM | 3.65% | 0.1% | 0.06% | 0.11% | 0.38% | 0.1% | 0.09% | 0.14% | 0.35% | 0.2% | 0.03% | 2.22% | 0.44% | 0.14% | 0.04% | viability, T/C [1]: 9.27%; viability, T/C [2]: 1.3%; viability, T/C [7]: 8.56%; viability, T/C [8]: 1.25%; viability, T/C [13]: 10.1%; viability, T/C [14]: 1.4%; viability, T/C [19]: 9.75%; viability, T/C [20]: 3.48%; viability, T/C [24]: 1.61%; viability, T/C [25]: 5.79%; viability, T/C [26]: 0.65%; viability, T/C [27]: 0.32%; viability, T/C [28]: 0.23%; viability, T/C [29]: 0.09%; viability, T/C [30]: 0.37% |
| CC(C)CC(NC(=O)CNC(=O)c1cc(Cl)ccc1Cl)B1OC(=O)CC(CC(=O)O)(C(=O)O)O1 (stereo not given) + NC1CCC(NC2CC2c2ccccc2)CC1 | 3.66 nM | 3.22 nM | 3.66 nM | 3.84 nM | 3.71 nM | 54.9% | 13.2% | 3.51% | 4.11% | 49.8% | 11.8% | 3.3% | 1.04% | 54.5% | 13.6% | 3.7% | 1% | 57.1% | 12.4% | 3.26% | viability, T/C [1]: 87.4%; viability, T/C [2]: 86.8%; viability, T/C [7]: 84.8%; viability, T/C [8]: 83.8%; viability, T/C [13]: 79%; viability, T/C [14]: 82.2%; viability, T/C [19]: 91.7%; viability, T/C [20]: 90.8%; viability, T/C [24]: 0.97%; viability, T/C [25]: 86.1%; viability, T/C [26]: 94.2%; viability, T/C [27]: 56.2%; viability, T/C [28]: 8.46%; viability, T/C [29]: 1.96%; viability, T/C [30]: 0.65% |
| COc1cc(Nc2ncc3c(n2)-c2ccc(Cl)cc2C(c2c(F)cccc2OC)=NC3)ccc1C(=O)O + NC1CCC(NC2CC2c2ccccc2)CC1 | > 1000 nM | > 1000 nM | > 1000 nM | > 1000 nM | > 1000 nM | 105% | 99.2% | 100% | 99.6% | 111% | 92.9% | 98.6% | 95.9% | 112% | 107% | 93.5% | 105% | 110% | 104% | 95.7% | viability, T/C (second compound 0.1 µM, first compound 0.316 µM): 93.7%; viability, T/C (second compound 0.1 µM, first compound 1 µM): 60.1%; viability, T/C (second compound 0.316 µM, first compound 0.316 µM): 92.4%; viability, T/C (second compound 0.316 µM, first compound 1 µM): 59.2%; viability, T/C (second compound 1 µM, first compound 0.316 µM): 88.5%; viability, T/C (second compound 1 µM, first compound 1 µM): 62.2%; viability, T/C [24]: 88.3%; viability, T/C (second compound 3.16 µM, first compound 0.316 µM): 92%; viability, T/C (second compound 3.16 µM, first compound 1 µM): 60.9%; viability, T/C [27]: 113%; viability, T/C [28]: 111%; viability, T/C [29]: 97.6%; viability, T/C [30]: 104%; viability, T/C (second compound 10 µM, first compound 0.316 µM): 86.7%; viability, T/C (second compound 10 µM, first compound 1 µM): 60.7% |

Source: PubChem BioAssay AID1918932 (Molecular Pharmacology Branch, DTP, NCI, 2023)
